Laboratory results from publication PMC5964640, “Pharmacological effects of N-[2-[[2-[2-[(2,6-dichlorophenyl)amino]phenyl]acetyl]oxy]ethyl]hyaluronamide (diclofenac Etalhyaluronate, SI-613), a novel sodium hyaluronate derivative chemically linked with diclofenac” (BMC Musculoskeletal Disorders, 2018).
Several values for one entry are separate records, joined by “and”; a condition that tells them apart may be missing. Identical values can stand only once.

Key:
[1] = test system: silver nitrate-induced arthritic rats; assay: Rat model of silver nitrate-induced arthritic pain (pain score, weight-bearing rate); format: in vivo
Excerpt: The silver nitrate-induced arthritic pain model is known as a subacute arthritis model, in which the inflammatory response and pain last for at least 3 days following injury. This model involves the activation of prostaglandin pathways and has been used for evaluating the analgesic effects of various NSAIDs or kappa-opioid receptor agonist. Overall, 136 male Sprague-Dawley (SD) rats were obtained from Charles River Laboratories Japan Inc. General anesthesia was maintained by the inhalation of isoflurane (Forane; Dainippon Sumitomo Pharma Co., Ltd., Osaka, Japan). Silver nitrate solution (1%, Wako Pure Chemical Industries, Ltd., Osaka, Japan) at a volume of 50 μL/joint was injected in the knee joint cavity of the left hindlimbs of rats. Animals with no abnormalities were allocated to four groups in each study based on the weight-bearing rate of the inflamed joints and pain score at the time of allocation, by using stratified continuous randomization. Test substances were administered on the day following the arthritis induction. In the first study, SI-613 (contents of DF; 11.8% (w/w), manufactured by Seikagaku Corporation, Tokyo, Japan) at doses of 0.05, 0.15, and 0.5 mg/50 μL/joint (5.9, 17.7, and 59 μg/joint in DF equivalent) or phosphate-buffered saline (PBS) was once injected into the joint cavities of the left hindlimbs for the dose-response assessments.
In the second study, SI-613 (0.5 mg/joint, 59 μg/joint in DF equivalent), HA (0.5 mg/joint, Seikagaku Corporation), a mixture of DF-Na (59 μg/joint, Wako Pure Chemical Industries, Ltd.) and HA (0.5 mg/joint) (DF-Na + HA), or PBS was administered in the same manner for the proof of concept. The doses of DF-Na and HA were set at those of respective components in SI-613 formulation. The DF-Na solution (1 mg/mL) was prepared using the Water for Injection (Otsuka Pharmaceutical Factory, Inc., Tokyo, Japan) and administered orally at a dose of 2 mg/kg (approximately 0.3 mg/body) once daily for 3 days. The oral DF-Na dose, 2 mg/kg, was set in accordance with the dose for adult humans with a body weight of 50 kg, on the assumption that the maximum daily dose in clinical practice administered to patients with OA or rheumatoid arthritis would be 100 mg. It has been reported that DF-Na exerted anti-inflammatory effects in rats when administered at this dose.
Pain was assessed under blinded conditions by scoring pain-related behaviors based on the following criteria and measuring the weight-bearing rates of hindlimbs with a load-measuring device (Tokken Inc., Chiba, Japan) at a same time each day for 3 days after the injection of the test materials.
The criteria for assigning pain scores were as follows: 0; normal, 1; mild claudication with lifting the foot, 2; severe claudication with completely closing the toe, 3; walking on three legs. The weight-bearing rate was calculated using the following formula:
Weight-bearing rate (%) = Mean weight-bearing load on inflamed leg (g) / Body weight (g) × 100.

[2] = test system: PGE2 content in the synovial fluid; assay: PGE2 content in the synovial fluid of silver nitrate-induced arthritic rats; format: in vivo, rat
Method: In addition, the prostaglandin E2 (PGE2) content, which plays a critical role in inducing inflammation and pain associated with arthritis, was determined in the synovial fluid (SF). Briefly, SI-613 (0.5 mg/joint) or PBS was administered into the joint cavity of the left hindlimb. After assessing the severity of pain, animals were sacrificed by exsanguination under 2% isoflurane anesthesia 1, 2 and 3 days after administration, respectively. The SF was collected by washing the joint cavity with saline (Otsuka Pharmaceutical Factory, Inc.) containing indomethacin (Indacin, MSD K. K., Tokyo, Japan), which was effective to prevent joint puncturing-induced production of PGE2 (unpublished result). The PGE2 content in the SF was measured with a High Sensitivity PGE2 Correlate-EIA kit (Assay Designs Inc., Ann Arbor, MI).

PGE2 content in the SF = PGE2 content in the SF of rabbits with antigen-induced arthritis; format: in vivo, rabbit; conditions: for production of PGE2 in the SF, group comparison: 72 h after administration
Method: To prepare the anesthetic, saline (2 mL), midazolam (1 mL, 5 mg/mL, Astellas Pharma Inc., Tokyo, Japan), xylazine (2 mL, 0.02 g/mL, Bayer Medical Ltd., Tokyo, Japan), and butorphanol tartrate (1 mL, 5 mg/mL, Meiji Seika Kaisha, Ltd., Tokyo, Japan) were mixed. The anesthetic was administered intravenously to each animal at a volume of 1 mL/body. OVA (Sigma-Aldrich Co., St. Louis, MO) emulsion with Freund's complete adjuvant (FCA; CAPPEL Laboratories Inc., Cochranville, PA) was injected intradermally into the backs of 80 male rabbits at a dose of 5 mg/animal twice at an interval of 13 or 14 days. Twenty-three days after the first immunization, 1% OVA solution was injected in the joint cavities of the left hindlimb at a volume of 500 μL/joint to induce arthritis. […] Animals were sacrificed by exsanguination under 2% isoflurane anesthesia 3 and 72 h after administration, respectively. The SF was collected by washing the joint cavity twice with saline (Otsuka Pharmaceutical Factory, Inc.) containing 20 μg/mL of indomethacin ([…] K. K.) at 3 or 72 h after the administration of the test materials. The PGE2 content in the SF was determined as a mechanism biomarker for the anti-inflammatory effect using a High Sensitivity Prostaglandin E2 Enzyme Immunoassay Kit (Assay Designs Inc.).

[3] = test system: antigen-induced arthritic rabbits; assay: Knee joint swelling of antigen-induced arthritic rabbits (long-lasting anti-inflammatory effect); format: in vivo, rabbit; conditions: single IA 5 mg/joint
Method: The duration and efficacy of the anti-inflammatory effect of SI-613 was studied in OVA-induced arthritis rabbits. Two days after the arthritis induction, the knee joint diameter in all 60 rabbits was measured with a digital thickness gauge (Teclock Corp., Nagano, Japan). The joint swelling was expressed as the difference in millimeters between the inflamed (left) and non-inflamed (right) knee joint diameters. The same researcher evaluated the knee joint swelling on all groups on all days. Fifteen animals (knee joint swelling was not more than 7.30 mm) and 5 animals (knee joint swelling was not less than 10.40 mm) were excluded. Forty animals were divided into two groups of 20 animals each by the stratified random sampling method based on the knee joint swelling and body weight of the day, and were administered with 5 mg/joint SI-613 or PBS at a volume of 500 μL/joint into the joint cavities. The knee joint swelling was evaluated the day before (day 0), and on days 1, 3, 7, 14, 21, 28, 35, and 42 after a single injection of the test materials. The knee joint swelling was expressed as the difference in the width of the right and left knee joint.

[4] = Distribution of DF in knee tissues after a single administration, short-term study (LC-MS/MS); format: in vivo, rabbit; conditions: individual animals, free DF
Method: Two days after the induction of arthritis, 5 mg/joint SI-613, a mixture of 0.59 mg/joint DF-Na and 5 mg/joint HA (DF-Na + HA), or PBS was administered to the knee joint cavity at a volume of 500 μL/joint. DF-Na was orally administered at a dose of 2 mg/kg. The concentrations of free DF in the synovium and synovial lavage fluid were measured by high performance liquid chromatography coupled with tandem mass spectrometry (LC-MS/MS) at 3 and 72 h after a single IA administration and after a single oral administration of the test materials, respectively. Moreover, plasma concentrations of DF were determined to compare the systemic exposure of DF after the administration of SI-613 with that of the other compounds. The synovium was homogenized in 40-fold volume (40 mL for 1 g tissue) of 10 mM ammonium formate (pH 6.0)/methanol (3:2, v/v) on an ice bath. Then, free DF in the homogenate was extracted with tert-butyl methyl ether-1% acetic acid (6:1, v/v). Free DF in the synovial fluid or plasma was adsorbed to an Oasis HLB cartridge (30 mg/1 cm^3, Waters Corporation, Milford, MA) and eluted with methanol. The internal standard of deuterium-labeled diclofenac (diclofenac-d7) was added to each sample. The extract was loaded onto a CAPCELL PAK C18 MG HPLC column (Shiseido Co. Ltd., Tokyo, Japan, column size: 4.6 mm × 35 mm, particle size: 5 μm) at 40 °C, and eluted with 10 mM ammonium formate (pH 6.0)/methanol (2:3, v/v) at a flow rate of 0.5 mL/minute. For mass detection, we used a QTRAP® 5500 System (AB SCIEX, Framingham, MA) equipped with an electrospray ionization (ESI) source in positive ions in multiple reaction monitoring (MRM) mode. Linear calibration (r > 0.999) was attained at 5–1000 ng/g for the synovium and at 1–200 ng/mL for the synovial fluid and plasma.

[5] = Plasma DF concentrations of rabbits with antigen-induced arthritis; format: in vivo, rabbit
Method: Arthritis was induced in the 12 rabbits as described above. Two days after the induction of arthritis, 5 mg/joint SI-613, a mixture of 0.59 mg/joint DF-Na and 5 mg/joint HA (DF-Na + HA), or PBS was administered to the knee joint cavity at a volume of 500 μL/joint. DF-Na was orally administered at a dose of 2 mg/kg. The concentrations of free DF in the synovium and synovial lavage fluid were measured by high performance liquid chromatography coupled with tandem mass spectrometry (LC-MS/MS) at 3 and 72 h after a single IA administration and after a single oral administration of the test materials, respectively. Moreover, plasma concentrations of DF were determined to compare the systemic exposure of DF after the administration of SI-613 with that of the other compounds. The synovium was homogenized in 40-fold volume (40 mL for 1 g tissue) of 10 mM ammonium formate (pH 6.0)/methanol (3:2, v/v) on an ice bath. Then, free DF in the homogenate was extracted with tert-butyl methyl ether-1% acetic acid (6:1, v/v). Free DF in the synovial fluid or plasma was adsorbed to an Oasis HLB cartridge (30 mg/1 cm^3, Waters Corporation, Milford, MA) and eluted with methanol. The internal standard of deuterium-labeled diclofenac (diclofenac-d7) was added to each sample. The extract was loaded onto a CAPCELL PAK C18 MG HPLC column (Shiseido Co. Ltd., Tokyo, Japan, column size: 4.6 mm × 35 mm, particle size: 5 μm) at 40 °C, and eluted with 10 mM ammonium formate (pH 6.0)/methanol (2:3, v/v) at a flow rate of 0.5 mL/minute. For mass detection, we used a QTRAP® 5500 System (AB SCIEX, Framingham, MA) equipped with an electrospray ionization (ESI) source in positive ions in multiple reaction monitoring (MRM) mode. Linear calibration (r > 0.999) was attained at 5–1000 ng/g for the synovium and at 1–200 ng/mL for the synovial fluid and plasma. The extraction efficiencies of diclofenac were 84.2–92.9% for the synovium, 95.2–100.3% for the synovial fluid, and 94.2–96.5% for the plasma.
Time for calculation of area under the DF plasma concentration-time curve (AUC0-t), t (day), was the latest time point at which DF was quantifiable. The half-life (T1/2) was determined by semi-log plotting the data of at least three time points after Tmax.

[6] = DF in knee tissues after a single IA administration of SI-613, long-term study (LC-MS/MS); format: in vivo, rabbit; conditions: single IA 5 mg/joint
Method: Arthritis was induced in the 24 rabbits as described above. Two days after the induction of arthritis in the rabbits, 5 mg/joint SI-613 or PBS was administered at a volume of 500 μL/joint into the knee joint cavity. Concentrations of DF in the synovium and synovial lavage fluid were measured by LC-MS/MS on days 1, 3, 7, 14, 21, 28, 35, and 42 after a single IA administration.

[7] = second study, single IA 0.5 mg/joint, compared with PBS, HA, DF-Na + HA or repeated oral DF-Na
[8] = sampling point 72 h, oral 2 mg/kg or single IA, 2 mg/kg
[9] = sampling point 72 h, oral 2 mg/kg or single IA

With “N-[2-[[2-[2-[(2,6-dichlorophenyl)amino]phenyl]acetyl]oxy]ethyl]hyaluronamide [SI-613]” the “analgesic effect (pain score)” value ([1]; PGE2 study, IA 0.5 mg/joint, days 1, 2 and 3) was “confirmed each day”, the pain behavioral score ([1]; first study, single IA 0.05, 0.15 and 0.5 mg/joint, vs control (PBS), mean of 3 days) was “improved the pain behavioral scores significantly” and the weight-bearing rate ([1]; first study, single IA 0.15 and 0.5 mg/joint, vs control, mean of 3 days) was “significantly increased the weight-bearing rates”. The pain behavioral score [1, 7] was “significantly improved the pain behavioral score”, the weight-bearing rate [1, 7] was “increased the weight-bearing rate” and the “PGE2 content in the SF vs control” value ([2]; IA 0.5 mg/joint, days 1, 2 and 3) was “lower PGE2 content than the control group”. The “PGE2-inhibitory effect, statistical significance vs control” value ([2]; rat model, 72 h after administration) was “no statistically significant difference”, the “production of PGE2 in the SF, group comparison” value (PGE2 content in the SF) was “significantly suppressed” and the “knee joint swelling compared with the control” value ([3]; day 1 until day 28) was “significantly decreased”. For the same compound, the “knee joint swelling compared with the control” value ([3]; day 35 and day 42) was “no significant difference”, the “Concentration of DF Synovial lavage fluid” value [4, 8] was 60.64 ng/mL fluid and 38.82 ng/mL fluid and 1540 ng/mL fluid and the “Concentration of DF Synovium” value [4, 8] was 15.23 ng/g tissue and 45.47 ng/g tissue and 351.1 ng/g tissue. The “plasma AUC0-t of DF, times smaller than DF-Na + HA group (IA)” value ([5]; SI-613 IA vs DF-Na + HA IA) was 16 times, the “plasma Cmax of DF, times lower than DF-Na + HA group (IA)” value ([5]; SI-613 IA vs DF-Na + HA IA) was 94 times and the “plasma AUC0-t of DF, times smaller than DF-Na group (oral)” value ([5]; SI-613 IA vs DF-Na oral) was 187 times. The “plasma Cmax of DF, times lower than DF-Na group (oral)” value ([5]; SI-613 IA vs DF-Na oral) was 462 times, the “mean amount of DF in the joint cavity lavage fluid” value ([6]; day 21) was 5.940 ng/joint and the “DF in the joint cavity lavage fluid” value ([6]; day 28) was < 1 ng of DF per mL of synovial lavage fluid. For the same compound, the “mean DF concentration in the synovium” value ([6]; day 28) was 9.754 ng/g.
With `O=C(O)Cc1ccccc1Nc1c(Cl)cccc1Cl` [DF-Na, diclofenac sodium] the “mean PGE2 content in the SF” value (PGE2 content in the SF; 3 h after administration, DF-Na oral 2 mg/kg) was 3767 pg/joint, the “production of PGE2 in the SF compared with the control group” value (PGE2 content in the SF; 3 h after administration, oral 2 mg/kg) was “significantly suppressed” and the “production of PGE2 in the SF, group comparison” value (PGE2 content in the SF) was “No significant differences”. The “Concentration of DF Synovial lavage fluid” value ([4]; sampling point 3 h) was 124.6 ng/mL fluid and 58.23 ng/mL fluid and 45.66 ng/mL fluid, the “Concentration of DF Synovium” value ([4]; sampling point 3 h) was 155.8 ng/g tissue and 52.88 ng/g tissue and 75.83 ng/g tissue and the “Concentration of DF Synovial lavage fluid” value [4, 9] was “BLQ2 (< 1 ng of DF per mL of synovial lavage fluid)”. The “Concentration of DF Synovium” value [4, 9] was “BLQ1 (below limit of quantification, < 5 ng/g)”, the AUC(0-inf) ([5]; rabbit, plasma, po, 2 mg/kg, mean ± SD, read-out: AUC0-∞ of DF in plasma) was 4130 ng·h/mL and the half-life ([5]; rabbit, plasma, po, 2 mg/kg, mean ± SD, read-out: t1/2 of DF in plasma (converted)) was 768 min. For the same compound, the Tmax ([5]; rabbit, plasma, po, 2 mg/kg, same groups, mean ± SD) was 2.4 ± 3.2 h, the AUC(0-t) ([5]; rabbit, plasma, po, 2 mg/kg, t = latest time point at which DF was quantifiable, mean ± SD, read-out: AUC0-t of DF in plasma) was 4690 ± 1900 ng·h/mL and the Cmax ([5]; rabbit, plasma, DF-Na oral 2 mg/kg, mixture DF-Na 0.59 mg + HA 5 mg/joint IA, SI-613 5 mg/joint IA, mean ± SD) was 621 ± 372 ng/mL.
